Measurements published in paper PMC7298650 (iScience, 2020).
Read-outs that look alike come from different tables or passages of the source.

Tests used:
insulin receptor [1] = target: T1, insulin receptor (Homo sapiens, UniProt P06213); assay: surface plasmon resonance; assay type: binding
insulin receptor [2] = target: T1, insulin receptor; assay: surface plasmon resonance; assay type: binding; remark: listed apart in the source

T1 sequence (P06213 28-758): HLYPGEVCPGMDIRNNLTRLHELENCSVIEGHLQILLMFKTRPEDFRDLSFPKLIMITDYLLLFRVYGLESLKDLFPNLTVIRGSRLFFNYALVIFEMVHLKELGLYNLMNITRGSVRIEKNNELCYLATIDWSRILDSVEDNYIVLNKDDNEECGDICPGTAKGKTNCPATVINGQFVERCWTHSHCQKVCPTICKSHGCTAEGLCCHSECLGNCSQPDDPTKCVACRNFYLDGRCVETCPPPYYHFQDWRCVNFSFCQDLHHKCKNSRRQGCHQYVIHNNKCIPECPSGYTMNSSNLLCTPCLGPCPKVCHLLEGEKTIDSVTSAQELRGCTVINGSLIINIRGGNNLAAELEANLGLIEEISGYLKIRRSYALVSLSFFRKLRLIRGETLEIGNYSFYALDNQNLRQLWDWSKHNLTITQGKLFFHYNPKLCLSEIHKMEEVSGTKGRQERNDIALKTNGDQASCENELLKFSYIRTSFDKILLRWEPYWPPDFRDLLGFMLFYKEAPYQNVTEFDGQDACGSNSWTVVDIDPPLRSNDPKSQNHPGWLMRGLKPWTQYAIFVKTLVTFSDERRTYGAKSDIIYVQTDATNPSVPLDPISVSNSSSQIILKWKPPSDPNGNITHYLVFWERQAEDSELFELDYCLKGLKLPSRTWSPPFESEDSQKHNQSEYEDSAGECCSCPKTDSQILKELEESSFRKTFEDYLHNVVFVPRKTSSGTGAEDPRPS
T1 sequence (P06213 763-956): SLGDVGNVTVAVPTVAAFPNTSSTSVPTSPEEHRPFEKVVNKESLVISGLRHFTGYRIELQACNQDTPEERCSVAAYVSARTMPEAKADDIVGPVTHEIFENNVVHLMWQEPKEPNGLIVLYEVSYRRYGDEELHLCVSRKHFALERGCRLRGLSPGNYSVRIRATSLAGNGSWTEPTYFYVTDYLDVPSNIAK

Kd (insulin receptor [1]) [µM] | Kd (insulin receptor [2]) [µM] | Structure (SMILES)
~84 |  | CN(C)C(=N)N=C(N)N [Metformin]
 | ~14 | O=c1c2ccccc2nc2n1CCc1c-2[nH]c2ccccc12 [Rut-0, Rutaecarpine]
